{"source": "patent US6355799B1", "about": "“Substituted benzene compounds, process for their preparation, and herbicidal and defoliant compositions containing them” (ISK Americas Incorporated, priority 1997, dated 2002)", "format_in_all_cases": "in vivo", "key": {"[1]": {"test_system": "field corn (Zea mays L., var. Dekalb 535, CORN)", "assay": "Post-emerge test, crop safety", "conditions": "phytotoxicity rating 0-100 (0 no damage, 100 complete death), 14 days after application", "method_in_brief": "(§1)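 Compounds in acetone were track-sprayed at 15-1000 g ai/ha (187 l/ha) on sandy loam pots: pre-emerge one day after seeding, post-emerge at 2-3 leaf stage with 0.25% v/v non-ionic surfactant. Phytotoxicity was rated 14 days later on a 0 (no damage) to 100 (complete death) scale.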"}, "[2]": {"test_system": "upland rice (Oryza sp., var. Tebonnet, RICE)", "assay": "Post-emerge test, crop safety", "conditions": "phytotoxicity rating 0-100 (0 no damage, 100 complete death), 14 days after application", "method_in_brief": "as §1"}, "[3]": {"test_system": "ivyleaf morningglory (Ipomoea hederacea, IPOHE)", "assay": "Post-emerge test, greenhouse herbicide activity screening", "conditions": "phytotoxicity rating 0-100 (0 no damage, 100 complete death), 14 days after application", "method_in_brief": "(§2)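 Sandy loam pots; pre-emerge: sown 1 d pre-spray, surface-watered after, then bottom-watered. Post-emerge: sown 8–21 d before, 2–3 leaf stage, + 0.25% v/v NIS, bottom-watered. Acetone, 187 l/ha track spray, 15–1000 g ai/ha. 0–100 injury score, day 14.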"}, "[4]": {"test_system": "green foxtail (Setaria viridis, SETVI)", "assay": "Post-emerge test, greenhouse herbicide activity screening", "conditions": "phytotoxicity rating 0-100 (0 no damage, 100 complete death), 14 days after application", "method_in_brief": "as §2"}, "[5]": {"test_system": "redroot pigweed (Amaranthus retroflexus, AMARE)", "assay": "Post-emerge test, greenhouse herbicide activity screening", "conditions": "phytotoxicity rating 0-100 (0 no damage, 100 complete death), 14 days after application", "method_in_brief": "as §2"}, "[6]": {"test_system": "velvetleaf (Abutilon theophrasti, ABUTH)", "assay": "Post-emerge test, greenhouse herbicide activity screening", "conditions": "phytotoxicity rating 0-100 (0 no damage, 100 complete death), 14 days after application", "method_in_brief": "as §2"}, "[7]": {"test_system": "lambsquarters (Chenopodium album, CHEAL)", "assay": "Post-emerge test, greenhouse herbicide activity screening", "conditions": "phytotoxicity rating 0-100 (0 no damage, 100 complete death), 14 days after application", "method_in_brief": "as §2"}, "[8]": {"test_system": "barnyardgrass (Echinochloa crus-galli, ECHCG)", "assay": "Post-emerge test, greenhouse herbicide activity screening", "conditions": "phytotoxicity rating 0-100 (0 no damage, 100 complete death), 14 days after application", "method_in_brief": "as §2"}, "[9]": {"test_system": "johnsongrass (Sorghum halepense, SORHA)", "assay": "Post-emerge test, greenhouse herbicide activity screening", "conditions": "phytotoxicity rating 0-100 (0 no damage, 100 complete death), 14 days after application", "method_in_brief": "as §2"}, "[10]": {"test_system": "large crabgrass (Digitaria sanguinalis, DIGSA)", "assay": "Post-emerge test, greenhouse herbicide activity screening", "conditions": "phytotoxicity rating 0-100 (0 no damage, 100 complete death), 14 days after application", "method_in_brief": "as §2"}, "[11]": {"test_system": "sicklepod (Cassia obtusifolia, CASOB)", "assay": "Post-emerge test, greenhouse herbicide activity screening", "conditions": "phytotoxicity rating 0-100 (0 no damage, 100 complete death), 14 days after application", "method_in_brief": "as §2"}, "[12]": {"test_system": "ivyleaf morningglory (Ipomoea hederacea, IPOHE)", "assay": "Pre-emerge test, greenhouse herbicide activity screening", "conditions": "pre-emerge, rated 14 days after application, 0 = no damage, 100 = complete death", "method_in_brief": "as §1"}, "[13]": {"test_system": "green foxtail (Setaria viridis, SETVI)", "assay": "Pre-emerge test, greenhouse herbicide activity screening", "conditions": "pre-emerge, rated 14 days after application, 0 = no damage, 100 = complete death", "method_in_brief": "as §1"}, "[14]": {"test_system": "velvetleaf (Abutilon theophrasti, ABUTH)", "assay": "Pre-emerge test, greenhouse herbicide activity screening", "conditions": "pre-emerge, rated 14 days after application, 0 = no damage, 100 = complete death", "method_in_brief": "as §1"}, "[15]": {"test_system": "lambsquarters (Chenopodium album, CHEAL)", "assay": "Pre-emerge test, greenhouse herbicide activity screening", "conditions": "pre-emerge, rated 14 days after application, 0 = no damage, 100 = complete death", "method_in_brief": "as §1"}, "[16]": {"test_system": "barnyardgrass (Echinochloa crus-galli, ECHCG)", "assay": "Pre-emerge test, greenhouse herbicide activity screening", "conditions": "pre-emerge, rated 14 days after application, 0 = no damage, 100 = complete death", "method_in_brief": "as §1"}, "[17]": {"test_system": "johnsongrass (Sorghum halepense, SORHA)", "assay": "Pre-emerge test, greenhouse herbicide activity screening", "conditions": "pre-emerge, rated 14 days after application, 0 = no damage, 100 = complete death", "method_in_brief": "as §1"}, "[18]": {"test_system": "large crabgrass (Digitaria sanguinalis, DIGSA)", "assay": "Pre-emerge test, greenhouse herbicide activity screening", "conditions": "pre-emerge, rated 14 days after application, 0 = no damage, 100 = complete death", "method_in_brief": "as §1"}, "[19]": {"test_system": "sicklepod (Cassia obtusifolia, CASOB)", "assay": "Pre-emerge test, greenhouse herbicide activity screening", "conditions": "pre-emerge, rated 14 days after application, 0 = no damage, 100 = complete death", "method_in_brief": "as §1"}, "[20]": {"test_system": "field corn (Zea mays L., var. Dekalb 535, CORN)", "assay": "Pre-emerge test, crop safety", "conditions": "pre-emerge, rated 14 days after application, 0 = no damage, 100 = complete death", "method_in_brief": "(§3)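 Compounds in acetone were track-sprayed at 187 l/ha, 15–1000 g ai/ha, onto sandy loam pots. Pre-emerge seeds were sown one day before spraying, with surface watering afterwards. Post-emerge plants were at the 2–3 leaf stage and sprayed with 0.25% v/v non-ionic surfactant. Injury was rated 0–100 at 14 days.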"}, "[21]": {"test_system": "upland rice (Oryza sp., var. Tebonnet, RICE)", "assay": "Pre-emerge test, crop safety", "conditions": "pre-emerge, rated 14 days after application, 0 = no damage, 100 = complete death", "method_in_brief": "as §3"}, "[22]": {"test_system": "redroot pigweed (Amaranthus retroflexus, AMARE)", "assay": "Pre-emerge test, greenhouse herbicide activity screening", "conditions": "pre-emerge, rated 14 days after application, 0 = no damage, 100 = complete death", "method_in_brief": "as §3"}}}
{"compound": "CCOC(=O)C(C)Oc1c(Cl)cc(F)c(-n2c(=O)cc(C(F)(F)F)n(C)c2=O)c1N", "note": "(centres unmarked) [Compound 1-60]", "values": [{"measurement": "Post-emerge Herbicidal Activity CORN (crop damage)", "setting": "[1]; 63 g ai/ha", "result": 0}, {"measurement": "Post-emerge Herbicidal Activity CORN (crop damage)", "setting": "[1]; 250 g ai/ha", "result": 50}, {"measurement": "Post-emerge Herbicidal Activity RICE (crop damage)", "setting": "[2]; 63 g ai/ha", "result": 10}, {"measurement": "Post-emerge Herbicidal Activity RICE (crop damage)", "setting": "[2]; 250 g ai/ha", "result": 40}, {"measurement": "Post-emerge Herbicidal Activity IPOHE", "setting": "[3]; 63 g ai/ha", "result": 90}, {"measurement": "Post-emerge Herbicidal Activity IPOHE", "setting": "[3]; 250 g ai/ha", "result": 100}, {"measurement": "Post-emerge Herbicidal Activity SETVI", "setting": "[4]; 63 g ai/ha", "result": 0}, {"measurement": "Post-emerge Herbicidal Activity SETVI", "setting": "[4]; 250 g ai/ha", "result": 10}, {"measurement": "Post-emerge Herbicidal Activity AMARE", "setting": "[5]; 63 g ai/ha", "result": 90}, {"measurement": "Post-emerge Herbicidal Activity AMARE", "setting": "[5]; 250 g ai/ha", "result": 100}, {"measurement": "Post-emerge Herbicidal Activity ABUTH", "setting": "[6]; 63 g ai/ha", "result": 100}, {"measurement": "Post-emerge Herbicidal Activity ABUTH", "setting": "[6]; 250 g ai/ha", "result": 100}, {"measurement": "Post-emerge Herbicidal Activity CHEAL", "setting": "[7]; 63 g ai/ha", "result": 99}, {"measurement": "Post-emerge Herbicidal Activity CHEAL", "setting": "[7]; 250 g ai/ha", "result": 100}, {"measurement": "Post-emerge Herbicidal Activity ECHCG", "setting": "[8]; 63 g ai/ha", "result": 0}, {"measurement": "Post-emerge Herbicidal Activity ECHCG", "setting": "[8]; 250 g ai/ha", "result": 20}, {"measurement": "Post-emerge Herbicidal Activity SORHA", "setting": "[9]; 63 g ai/ha", "result": 0}, {"measurement": "Post-emerge Herbicidal Activity SORHA", "setting": "[9]; 250 g ai/ha", "result": 20}, {"measurement": "Post-emerge Herbicidal Activity DIGSA", "setting": "[10]; 63 g ai/ha", "result": 0}, {"measurement": "Post-emerge Herbicidal Activity DIGSA", "setting": "[10]; 250 g ai/ha", "result": 50}, {"measurement": "Post-emerge Herbicidal Activity CASOB", "setting": "[11]; 63 g ai/ha", "result": 50}, {"measurement": "Post-emerge Herbicidal Activity CASOB", "setting": "[11]; 250 g ai/ha", "result": 90}, {"measurement": "Pre-emerge Herbicidal Activity IPOHE (phytotoxicity rating, scale 0-100)", "setting": "[12]; 63 g ai/ha", "result": 90}, {"measurement": "Pre-emerge Herbicidal Activity IPOHE (phytotoxicity rating, scale 0-100)", "setting": "[12]; 250 g ai/ha", "result": 100}, {"measurement": "Pre-emerge Herbicidal Activity SETVI (phytotoxicity rating, scale 0-100)", "setting": "[13]; 63 g ai/ha", "result": 95}, {"measurement": "Pre-emerge Herbicidal Activity SETVI (phytotoxicity rating, scale 0-100)", "setting": "[13]; 250 g ai/ha", "result": 100}, {"measurement": "Pre-emerge Herbicidal Activity ABUTH (phytotoxicity rating, scale 0-100)", "setting": "[14]; 63 g ai/ha", "result": 100}, {"measurement": "Pre-emerge Herbicidal Activity ABUTH (phytotoxicity rating, scale 0-100)", "setting": "[14]; 250 g ai/ha", "result": 100}, {"measurement": "Pre-emerge Herbicidal Activity CHEAL (phytotoxicity rating, scale 0-100)", "setting": "[15]; 63 g ai/ha", "result": 100}, {"measurement": "Pre-emerge Herbicidal Activity CHEAL (phytotoxicity rating, scale 0-100)", "setting": "[15]; 250 g ai/ha", "result": 100}, {"measurement": "Pre-emerge Herbicidal Activity ECHCG (phytotoxicity rating, scale 0-100)", "setting": "[16]; 63 g ai/ha", "result": 50}, {"measurement": "Pre-emerge Herbicidal Activity ECHCG (phytotoxicity rating, scale 0-100)", "setting": "[16]; 250 g ai/ha", "result": 95}, {"measurement": "Pre-emerge Herbicidal Activity SORHA (phytotoxicity rating, scale 0-100)", "setting": "[17]; 63 g ai/ha", "result": 80}, {"measurement": "Pre-emerge Herbicidal Activity SORHA (phytotoxicity rating, scale 0-100)", "setting": "[17]; 250 g ai/ha", "result": 100}, {"measurement": "Pre-emerge Herbicidal Activity DIGSA (phytotoxicity rating, scale 0-100)", "setting": "[18]; 63 g ai/ha", "result": 95}, {"measurement": "Pre-emerge Herbicidal Activity DIGSA (phytotoxicity rating, scale 0-100)", "setting": "[18]; 250 g ai/ha", "result": 100}, {"measurement": "Pre-emerge Herbicidal Activity CASOB (phytotoxicity rating, scale 0-100)", "setting": "[19]; 63 g ai/ha", "result": 70}, {"measurement": "Pre-emerge Herbicidal Activity CASOB (phytotoxicity rating, scale 0-100)", "setting": "[19]; 250 g ai/ha", "result": 100}, {"measurement": "Pre-emerge crop damage CORN (phytotoxicity rating, scale 0-100)", "setting": "[20]; 63 g ai/ha", "result": 50}, {"measurement": "Pre-emerge crop damage CORN (phytotoxicity rating, scale 0-100)", "setting": "[20]; 250 g ai/ha", "result": 95}, {"measurement": "Pre-emerge crop damage RICE (phytotoxicity rating, scale 0-100)", "setting": "[21]; 63 g ai/ha", "result": 40}, {"measurement": "Pre-emerge crop damage RICE (phytotoxicity rating, scale 0-100)", "setting": "[21]; 250 g ai/ha", "result": 95}, {"measurement": "Pre-emerge Herbicidal Activity AMARE (phytotoxicity rating, scale 0-100)", "setting": "[22]; 63 g ai/ha", "result": 100}, {"measurement": "Pre-emerge Herbicidal Activity AMARE (phytotoxicity rating, scale 0-100)", "setting": "[22]; 250 g ai/ha", "result": 100}]}
